From US20250179057A1, “MEK IMMUNE ONCOLOGY INHIBITORS AND THERAPEUTIC USES THEREOF” (Immuneering Corporation, priority 2022, published 2025) come the findings set out here.

As a reminder, the efflux ratio is a quotient of directional permeabilities that is used to spot active efflux. A word on the Papp A→B: it is how fast a substance crosses the layer from the apical side. The low end stands for slow passage, the high end for fast passage. By Papp B→A is commonly meant the apparent permeability from the basolateral to the apical side of a cell layer. A word on the inhibition: it is the change of the read-out against control, counted positive when it falls. Usually Papp stands for the rate of passage across a membrane or cell layer, normalised by area and donor concentration. Read a low Papp as slow passage. The IC50 is the midpoint of a concentration-inhibition curve. Read a high IC50 as a need for much substance.

Bounds are passed on as bounds.

For one series, the target named is CYP2D6 (Homo sapiens, UniProt P10635). Kind of series: CYP450 panel inhibition in human liver microsomes, 2D6 (dextromethorphan). Conditions: control dose 1 μM, substrate dextromethorphan. (In general: Liver microsomes are a subcellular fraction often used to study metabolism.)
A further series in a line: in vitro. To be noted: human.
Series [1] can be described thus: Plasma stability, mouse plasma (Balb/c; Table 5 head CD-1 Mouse). It counts as in vitro ADME. To be noted: 2 μM; plasma; 2 hour.
Series [2] can be described thus: Plasma stability, beagle dog plasma (K2EDTA). It counts as in vitro ADME. To be noted: 2 μM; plasma; 2 hour. On the procedure:
(§1) Individual stock solutions of propantheline and lovastatin were prepared at 10 mM in DMSO and were further diluted to 2 mM with DMSO.
(§2) Frozen matrices (Balb/c mouse, Wistar Han rat, Beagle dog, and human plasma containing K2EDTA as anti-coagulant) were thawed and centrifuged at 3100 rpm for 10 minutes at 4° C. to remove particulates. The lipid layer was then removed, and the supernatant was transferred to a new tube without disturbing the pellet. After the matrices were incubated at 37° C. for at least 10 minutes, the pH of each matrix was adjusted to pH 7.4, using 10% phosphoric acid or 1N sodium hydroxide as necessary. Test and control article stock solutions were spiked (2 μL) into matrix (1.998 mL) and mixed to final assay concentration of […]. Duplicate 30-μL aliquots of spiked plasma were transferred to matrix tubes in 96-well plate immediately after spiking for timepoints of 0, 30, 60, 120, 240, and 360 minutes. These tubes were then incubated at 37° C. with shaking and at each timepoint, the corresponding tubes containing samples were quenched with 180 μL of cold acetonitrile containing the internal standards. The quenched samples were vortex-mixed briefly and stored refrigerated. After the final time point (360 minutes), the plates with all quenched samples were vortex-mixed for 10 minutes and then centrifuged at 3100 rpm for 10 minutes at 4° C. to sediment the precipitated protein. The supernatant (50 μL) was transferred to a clean 96-well plate and diluted with 100 μL of water. The plates were stored refrigerated until analysis.
(§3) Data Analysis: Peak area ratios for IS-normalized test article and control article counts were used to calculate the percent remaining relative to the time zero (T0) value. As appropriate, results were plotted and further analyzed to calculate half-life (T1/2) values.
(§4) Mean peak area ratios were used to calculate the % remaining relative to the T0 value:
(§5) In this study, human, cynomolgus monkey, beagle dog, wistar hannover rat, and balb/c plasma stability was determined. Table 28 describes the results of the human plasma stability at 2 μM concentration and anti-coagulant K2-EDTA from 10 to 120 min. Table 29 describes the results of the cynomolgus monkey plasma stability at 2 μM concentration and anti-coagulant K2-EDTA. Table 30 describes the results of the beagle dog plasma stability at 2 μM concentration and anti-coagulant K2-EDTA. Table 31 describes the results of the wistar hannover rat plasma stability at 2 μM concentration and anti-coagulant K2-EDTA. Table 32 describes the results of the balb/c plasma stability at 2 μM concentration and anti-coagulant K2-EDTA.

Series [3] is described as follows: Plasma stability, human plasma (K2EDTA). It counts as in vitro ADME. To be noted: 2 μM; plasma; 2 hour. The method, then: as §1, §2, §3, §4, §5
The target of the next series is CYP2C19 (Homo sapiens, UniProt P33261). Briefly: in vitro. Conditions: pooled liver microsomes, pH 7.4, probe mephenytoin.
The next series deals with T1, CYP2C8 (Homo sapiens, UniProt P10632).
T1 sequence (P10632 1-490): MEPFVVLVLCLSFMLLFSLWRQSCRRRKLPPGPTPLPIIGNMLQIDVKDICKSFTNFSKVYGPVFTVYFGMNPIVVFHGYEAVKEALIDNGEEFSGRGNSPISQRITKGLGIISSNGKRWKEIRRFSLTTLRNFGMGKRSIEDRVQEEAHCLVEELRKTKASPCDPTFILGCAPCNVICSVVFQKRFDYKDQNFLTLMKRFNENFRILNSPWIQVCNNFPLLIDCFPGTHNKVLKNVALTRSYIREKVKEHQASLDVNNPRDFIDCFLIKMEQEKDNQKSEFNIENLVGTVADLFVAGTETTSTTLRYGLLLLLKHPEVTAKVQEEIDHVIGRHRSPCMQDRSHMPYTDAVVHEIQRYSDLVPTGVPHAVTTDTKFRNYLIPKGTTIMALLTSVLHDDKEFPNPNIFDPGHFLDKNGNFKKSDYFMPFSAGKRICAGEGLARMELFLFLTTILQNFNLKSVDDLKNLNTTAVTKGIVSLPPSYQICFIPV
Kind of series: in vitro. Conditions: pooled liver microsomes, pH 7.4, probe amodiaquine.

In series [4] the test system is phospho-ERK in A549 (KRAS G12S) cells. Briefly: Cell-based pERK (pERK:tERK) in A549 cells. Conditions: for activity at 0.01 µM: Homo sapiens, A549, 2 h, read-out: A549-pERK (10 nM, 2 h); for pERK:tERK (10 nM 2 h A549): Phospho-ERK Screen in A549 (KRAS G12S), head 10 nM 2 h, title 10 μM for 2 hours. Put shortly: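 Readout was pERK versus tERK by Western blot with IRDye-labelled secondary antibodies, imaged and quantified on a LI-COR Odyssey. Lysates were loaded at 1 mg/mL protein after Bradford estimation.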

A further series is described as follows: PAMPA (pH 7.4). It counts as in vitro ADME. To be noted: PAMPA; pH = 7.4 (Table 14). (PAMPA measures passive passage across an artificial lipid membrane.)
A further series addresses hERG (Homo sapiens, UniProt Q12809). Briefly: cell-based. The method, then: Materials and Methods: CHO cells (transformed with adenovirus 5 DNA; Stably transfected with full length hERG cDNA) were cultured in Ham's F-12 supplemented with 10% fetal bovine serum, 100 U/mL penicillin G sodium, 100 μg/mL streptomycin sulfate and 400 μg/mL Zeocin. Before testing, cells in culture dishes were rinsed with Hank's Balanced Salt Solution, detached with accutase.
HEPES-buffered intracellular solution (Charles River proprietary) for whole cell recordings was loaded into the intracellular compartment of the SP384PE. Extracellular buffer (HB-PS) and Cell suspension (in HB-PS) were pipetted into the extracellular compartment of the SP384PE chip. After establishment of a whole-cell configuration, membrane currents were recorded using patch clamp amplifier in the SP384PE system.
Test article (TA) concentrations (eight (8) concentrations of each test article were evaluated) were applied to naïve cells (n=4, where n=replicates/concentration). Each application consisted of addition of 40 μL of 2× concentrated test article solution to the total 80 μL of final volume of the extracellular well of the SP384PE chip. Duration of exposure to each compound concentration was five (5) minutes.
hERG current was measured using stimulus voltage patterns with fixed amplitudes: activation pre-pulse (TP1) to +40 mV for 2 s and test pulse (TP2) to −40 mV for 2 s from a holding potential of −80 mV. hERG current was measured as the outward peak current at TP2 (tail current). The stimulation was repeated with 0.1 Hz frequency during 2 min as baseline and 5 min after TA application.
Data acquisition and analyses were performed using the SP384PE system operation software. The decrease in current amplitude after TA application was used to calculate the percent block relative to control.
Tonic Block effect was calculated as:
[formula] • where ITP2, baseline and ITP2, TA were the outward peak K^+ currents elicited by the TP2 before application and 5 min after application of a test article, respectively.
The data were corrected for run-down:
[formula] • where % VC and % PC were the mean values of the current block with the vehicle and positive controls, respectively.
Concentration-response data were fitted to an equation of the following form:
[formula] • where [Test] was the concentration of test article, IC50 was the concentration of the test article producing half-maximal block, N was the Hill coefficient, % VC was the mean current block at the vehicle control and % Block was the percentage of ion channel current inhibited at each concentration of a test article. Nonlinear least squares fits were solved with the XLfit add-in for Excel (Microsoft, Redmond, WA).
In this study, hERG Ion channel block of IC50 values were determined. […] In brief, CHO cells were cultured in Ham's F-12 supplemented with 10% fetal bovine serum, 100 U/mL penicillin G sodium, 100 μg/mL streptomycin sulfate and 400 μg/mL Zeocin. Before testing, cells in culture dishes were rinsed with Hank's Balanced Salt Solution, detached with accutase. […] Test article (TA) concentrations were applied to naïve cells (n=4, where n=replicates/concentration). Each application consisted of addition of 40 μL of 2× concentrated test article solution to the total 80 μL of final volume of the extracellular well of the SP384PE chip. Duration of exposure to each compound concentration was five (5) minutes. hERG current was measured using stimulus voltage patterns with fixed amplitudes: activation pre-pulse (TP1) to +40 mV for 2 s and test pulse (TP2) to −40 mV for 2 s from a holding potential of −80 mV. hERG current was measured as the outward peak current at TP2 (tail current). The stimulation was repeated with 0.1 Hz frequency during 2 min as baseline and 5 min after TA application. Data acquisition and analyses were performed using the SP384PE system operation software.

Where [5] appears, read: Caco-2, Mean (B-A/A-B) (Efflux Ratio).
[6] abbreviates: Caco-2, Mean Papp A − B (10^−6 cm/s).
Where [7] appears, read: Caco-2, Mean Papp A-B (10^-6 cm/s).
Setting [8] is: Caco-2, Mean Papp B − A (10^−6 cm/s).
Where [9] appears, read: Caco-2, Mean Papp B-A (10^-6 cm/s).

Sequence of hERG (Q12809 whole entry): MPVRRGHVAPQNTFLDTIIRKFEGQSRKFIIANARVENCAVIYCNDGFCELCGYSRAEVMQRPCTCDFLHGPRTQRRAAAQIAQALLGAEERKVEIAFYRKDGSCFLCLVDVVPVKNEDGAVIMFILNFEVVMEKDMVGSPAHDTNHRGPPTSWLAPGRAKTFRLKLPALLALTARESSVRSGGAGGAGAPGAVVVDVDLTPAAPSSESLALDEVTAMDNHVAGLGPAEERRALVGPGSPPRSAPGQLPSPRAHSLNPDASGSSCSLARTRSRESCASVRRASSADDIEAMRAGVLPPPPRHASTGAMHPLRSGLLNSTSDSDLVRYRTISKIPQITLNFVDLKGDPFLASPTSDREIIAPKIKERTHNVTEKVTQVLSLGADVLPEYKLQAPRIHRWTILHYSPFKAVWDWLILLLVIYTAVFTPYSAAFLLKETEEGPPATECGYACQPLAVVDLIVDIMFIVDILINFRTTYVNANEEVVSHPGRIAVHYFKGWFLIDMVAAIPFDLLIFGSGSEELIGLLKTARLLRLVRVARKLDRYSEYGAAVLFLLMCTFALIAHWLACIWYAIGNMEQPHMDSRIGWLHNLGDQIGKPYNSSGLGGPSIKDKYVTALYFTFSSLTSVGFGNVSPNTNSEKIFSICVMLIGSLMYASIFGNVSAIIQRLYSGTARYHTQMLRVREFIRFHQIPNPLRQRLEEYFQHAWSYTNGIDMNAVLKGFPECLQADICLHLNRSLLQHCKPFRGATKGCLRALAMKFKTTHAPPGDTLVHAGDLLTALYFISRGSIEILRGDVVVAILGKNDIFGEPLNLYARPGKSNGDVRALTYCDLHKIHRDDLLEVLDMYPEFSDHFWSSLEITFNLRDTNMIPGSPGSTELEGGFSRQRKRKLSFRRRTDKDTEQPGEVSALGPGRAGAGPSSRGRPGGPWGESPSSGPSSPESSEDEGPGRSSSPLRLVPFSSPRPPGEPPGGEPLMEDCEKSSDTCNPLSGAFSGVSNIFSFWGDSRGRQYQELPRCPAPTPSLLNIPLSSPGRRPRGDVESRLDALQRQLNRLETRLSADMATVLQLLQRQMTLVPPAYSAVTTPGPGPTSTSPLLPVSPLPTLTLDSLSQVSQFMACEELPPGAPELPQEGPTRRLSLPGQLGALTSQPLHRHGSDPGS
Sequence of CYP2C19 (P33261 whole entry): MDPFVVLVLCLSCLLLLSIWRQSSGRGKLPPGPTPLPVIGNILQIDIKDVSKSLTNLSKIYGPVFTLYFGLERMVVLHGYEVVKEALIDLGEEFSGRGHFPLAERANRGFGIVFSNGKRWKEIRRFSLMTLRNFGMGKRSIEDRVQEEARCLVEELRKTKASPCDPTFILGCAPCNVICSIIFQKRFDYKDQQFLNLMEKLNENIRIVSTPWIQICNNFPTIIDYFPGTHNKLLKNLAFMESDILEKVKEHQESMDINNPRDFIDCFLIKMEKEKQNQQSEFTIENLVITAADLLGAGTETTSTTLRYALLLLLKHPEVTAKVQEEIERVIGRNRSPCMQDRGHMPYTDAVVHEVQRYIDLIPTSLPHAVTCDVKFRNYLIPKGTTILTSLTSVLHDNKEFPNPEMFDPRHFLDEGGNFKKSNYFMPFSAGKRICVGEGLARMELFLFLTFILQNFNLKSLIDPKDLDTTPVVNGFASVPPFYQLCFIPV
Sequence of CYP2D6 (P10635 whole entry): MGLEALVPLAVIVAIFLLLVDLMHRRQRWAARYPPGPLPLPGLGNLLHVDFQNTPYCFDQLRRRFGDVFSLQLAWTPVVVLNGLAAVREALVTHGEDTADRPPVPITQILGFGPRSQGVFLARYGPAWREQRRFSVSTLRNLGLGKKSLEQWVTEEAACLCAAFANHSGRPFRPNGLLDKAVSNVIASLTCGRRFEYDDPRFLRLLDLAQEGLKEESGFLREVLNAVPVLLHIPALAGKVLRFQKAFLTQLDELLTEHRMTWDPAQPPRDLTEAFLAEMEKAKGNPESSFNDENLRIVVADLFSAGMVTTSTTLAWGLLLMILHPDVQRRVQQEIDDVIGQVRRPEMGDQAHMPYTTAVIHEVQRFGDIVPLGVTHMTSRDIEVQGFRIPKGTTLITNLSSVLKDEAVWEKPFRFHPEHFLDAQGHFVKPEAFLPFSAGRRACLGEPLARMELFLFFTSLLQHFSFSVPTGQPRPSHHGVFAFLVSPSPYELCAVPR
Protocol for PAMPA (pH 7.4): Each stock solution was diluted to 50 M in pH 7.4 Prisma HT buffer (pION) and 200 μl was added to each well of the donor plate in triplicate. The polyvinylidene fluoride (PVDF, 0.45 μm) filter membrane on the acceptor plate was coated with 5 μl gastrointestinal tract lipid formulation (GIT-0, pION) and to each well of the acceptor plate, 200 μl of acceptor sink buffer (pION) was added. The acceptor filter plate was then carefully placed on top of the donor plate to form a sandwich. The sandwich was incubated at 25° C. for 4 h without stirring. UV-vis spectra of the solutions in the blank, reference, acceptor and donor plates were measured using a microplate reader (Tecan Infinite 200PRO M Nano Plus). Permeability values were calculated using the PAMPA explorer software v.

`C=C[C@H]1C[N@@]2CC[C@H]1C[C@@H]2[C@@H](O)c1ccnc2ccc(OC)cc12` [Quinidine, reference compound]: the “CYP-2D6 (Dextromethorphan) mean percentage CYP inhibition, control” value at CYP2D6 was found to be 93.1%.
Take `CNC(=C[N+](=O)[O-])NCCSCc1ccc(CN(C)C)o1` [Ranitidine]: the “A − B Permeability Ranking” value with Caco-2 cells is “Lower”. In addition, the “A-B Permeability Ranking” value with Caco-2 cells was “Low”. For the same compound, the efflux ratio at 2 h, 10 μM is 4.06 in the series “in vitro” (setting [5]) and 2.89 in the series “in vitro” (Caco-2, Mean Efflux Ratio). The Papp A→B at 2 h, 10 μM in “in vitro” (setting [6]) was 0.407 ×10⁻⁶ cm/s; in the series “in vitro” (setting [7]) it was 0.347 ×10⁻⁶ cm/s. In addition, the results for the Papp B→A at 2 h, 10 μM in the series “in vitro” (setting [8]) and in the series “in vitro” (setting [9]) were 1.18 ×10⁻⁶ cm/s and 1.41 ×10⁻⁶ cm/s, respectively.
For the compound `CC[C@H](C)C(=O)O[C@H]1C[C@@H](C)C=C2C=C[C@H](C)[C@H](CC[C@@H]3C[C@@H](O)CC(=O)O3)[C@H]21` [Lovastatin, reference compound], the “CD-1 Mouse (% Reamining @2 hour)” value in series [1] was determined as 0.6%. The “Beagle Dog (% Reamining @2 hour)” value in series [2] turned out to be 94.1%. Also, the “Human (% Reamining @2 hour)” value in series [3] turned out to be 81.8%.
`COc1ccc2[nH]c([S+]([O-])Cc3ncc(C)c(OC)c3C)nc2c1` (stereo not drawn) [Omeprazole, reference compound] registered an inhibition at 30 min, 10 µM at CYP2C19 of 60.7%.
With `O=c1c(O)c(-c2ccc(O)c(O)c2)oc2cc(O)cc(O)c12` [Quercetin, reference compound], the inhibition at 30 min, 10 µM at CYP2C8 was found to be 88.3%.
As for `CCS(=O)(=O)Nc1cccc(Cc2c(CN3CCNCC3)c3cc(F)c(OC(=O)N(C)C)cc3oc2=O)c1Cl` [Compound 255, 3-(2-chloro-3-(ethylsulfonamido)benzyl)-6-fluoro-2-oxo-4-(piperazin-1-ylmethyl)-2H-chromen-7-yl dimethylcarbamate], in series [4], the activity at 0.01 µM was 37.1% and the “pERK:tERK (10 nM 2 h A549)” value turned out to be 37. This compound displayed a Papp at 4 h, 50 μM in the series “PAMPA (pH 7.4)” of 5 ×10⁻⁶ cm/s. The same compound came in with a half-maximal inhibitory concentration (IC50) on hERG of 18.1 µM.
As to `CNS(=O)(=O)Nc1cccc(Cc2c(CN3CCNCC3)c3cc(F)c(OC(=O)N(C)C)cc3oc2=O)c1Cl` [Compound 254, 3-(2-chloro-3-((N-methylsulfamoyl)amino)benzyl)-6-fluoro-2-oxo-4-(piperazin-1-ylmethyl)-2H-chromen-7-yl dimethylcarbamate], in series [4], the activity at 0.01 µM came to 26.8% and the “pERK:tERK (10 nM 2 h A549)” value is 27. In the series “PAMPA (pH 7.4)”, this compound had a Papp at 4 h, 50 μM of 2 ×10⁻⁶ cm/s. In addition, the concentration for half-maximal inhibition (IC50) against hERG is > 30 µM.
`CC(=O)CC(c1ccccc1)c1c(O)c2ccccc2oc1=O` (stereo not drawn) [Warfarin]: in the series on Caco-2 cells, the “A − B Permeability Ranking” value was “Higher”. Further, the “A-B Permeability Ranking” value with Caco-2 cells is “High”. Further, the efflux ratio at 2 h, 10 μM in “in vitro” (setting [5]) was 0.726; in “in vitro” (Caco-2, Mean Efflux Ratio) it was 0.513. Also, the apical-to-basolateral permeability (Papp A→B) at 2 h, 10 μM in the series “in vitro” (setting [6]) amounted to 40.5 ×10⁻⁶ cm/s; in “in vitro” (setting [7]), 36.6 ×10⁻⁶ cm/s. Further, the results for the Papp B→A at 2 h, 10 μM in “in vitro” (setting [8]) and in “in vitro” (setting [9]) were 20.8 ×10⁻⁶ cm/s and 26.6 ×10⁻⁶ cm/s, respectively.
